Here are results for twelve compounds from PubChem BioAssay (NCI).

The structures appear in SMILES notation.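 Grown in 96-well plates, cells were treated for 48 hours with each compound at five concentrations. Insufficient inhibition: endpoint recorded as highest concentration tested. GI50 is the concentration that inhibits growth by half. The concentration for full growth arrest is given as TGI.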 A value given as a limit tells only on which side of the number the result lay.

Among the test systems are HOP-62 NSCLC; OVCAR-3 ovarian; RPMI-8226 leukemia; HT29 colon; UACC-257 melanoma; UACC-62 melanoma; K-562 leukemia; SR leukemia.
Common to all, as to assay: NCI-60 cell line screen, 48 h

Take `c1ccc2c(-c3nc(-c4c[nH]c5ccncc45)cs3)c[nH]c2c1`: the GI50 in the assay on HOP-62 NSCLC was 1.71 µM; in the assay with OVCAR-3 ovarian it was 1.98 µM; with RPMI-8226 leukemia, 1.25 µM; with HT29 colon it was 2.07 µM; in the assay on UACC-257 melanoma, 1.8 µM; in the assay on UACC-62 melanoma, 1.67 µM. Moreover, in the assay with K-562 leukemia, the GI50 was 2.05 µM. The TGI in the assay with HOP-62 NSCLC was 4.27 µM; in the assay with OVCAR-3 ovarian, 3.98 µM; in the assay with RPMI-8226 leukemia it was 3.04 µM; in the assay with HT29 colon, 4.2 µM; in the assay with UACC-257 melanoma, 3.43 µM; in the assay with UACC-62 melanoma, 3.33 µM. This compound had a TGI in the assay with K-562 leukemia of 5.29 µM.

As to `CC(C)(C)OC(=O)NCCCn1c2c(c3ccccc3c1=O)C(=O)c1ccccc1-2`, the GI50 in the assay on HOP-62 NSCLC is 11.8 µM; with OVCAR-3 ovarian, 8.73 µM; in the assay on UACC-257 melanoma, 75.4 µM; in the assay on UACC-62 melanoma, 20.4 µM; with K-562 leukemia, greater than 100 µM. For the same compound, the TGI with HOP-62 NSCLC is 31.3 µM; with OVCAR-3 ovarian, 26.3 µM; with UACC-257 melanoma it was greater than 100 µM; in the assay on UACC-62 melanoma, 53.6 µM; with K-562 leukemia, greater than 100 µM.

Take `C1CC2CN(CCCN3CCOCC3)C(C1)O2` (stereo not given): the TGI in the assay with HOP-62 NSCLC, with OVCAR-3 ovarian, with RPMI-8226 leukemia, with HT29 colon, with UACC-257 melanoma and in the assay on UACC-62 melanoma was greater than 100 µM throughout. In the assay with K-562 leukemia, this compound showed a TGI greater than 100 µM.

`CCCCCC[C@H](C)Nc1nc2ccccc2c2occc12`: the GI50 in the assay with HOP-62 NSCLC is 11.5 µM; in the assay with OVCAR-3 ovarian, 6.27 µM; in the assay on RPMI-8226 leukemia, 3.74 µM; in the assay on HT29 colon, 8.15 µM; with UACC-257 melanoma, 3.24 µM; in the assay on UACC-62 melanoma, 11.6 µM. Moreover, the GI50 in the assay with K-562 leukemia is 16.3 µM. In addition, the TGI was 23.9 µM with HOP-62 NSCLC; 24.3 µM in the assay on OVCAR-3 ovarian; 44.3 µM in the assay with RPMI-8226 leukemia; greater than 100 µM with HT29 colon; 16.3 µM with UACC-257 melanoma; 24.1 µM in the assay with UACC-62 melanoma. Moreover, the TGI in the assay on K-562 leukemia was greater than 100 µM.

Regarding `CN(C)c1nc2ccccc2c2c1c1c(n2Cc2ccccc2)-c2ccccc2C1=O`, the GI50 in the assay with HOP-62 NSCLC was greater than 100 µM; with OVCAR-3 ovarian, greater than 100 µM; in the assay with RPMI-8226 leukemia, greater than 100 µM; with HT29 colon, 12.2 µM; in the assay with UACC-257 melanoma, greater than 100 µM; in the assay on UACC-62 melanoma, greater than 100 µM. The GI50 in the assay on K-562 leukemia is greater than 100 µM. For the same compound, the TGI in the assay on HOP-62 NSCLC, in the assay with OVCAR-3 ovarian, with RPMI-8226 leukemia, in the assay with HT29 colon, in the assay on UACC-257 melanoma and in the assay on UACC-62 melanoma was greater than 100 µM throughout. The TGI in the assay on K-562 leukemia is greater than 100 µM.

Turning to `O=c1[nH]c2ccccc2n1CCCN1CCC(n2c(=O)[nH]c3cc(Cl)ccc32)CC1`, the TGI in the assay on HOP-62 NSCLC was 36.4 µM; with OVCAR-3 ovarian it was 38.9 µM; in the assay on RPMI-8226 leukemia, 57.8 µM; in the assay on HT29 colon, 30.3 µM; in the assay with UACC-257 melanoma, 30.6 µM; in the assay with UACC-62 melanoma, 37.2 µM. In the assay on K-562 leukemia, this compound gave a TGI of 65 µM.

For `O=c1/c(=C\c2ccc(F)cc2)sc2n1C(c1ccc(F)cc1)C1=C(N=2)c2ccc3ccccc3c2OCC1` (stereo not given), the GI50 in the assay on HOP-62 NSCLC, in the assay on OVCAR-3 ovarian, in the assay on RPMI-8226 leukemia, in the assay with HT29 colon, in the assay on UACC-257 melanoma and in the assay with UACC-62 melanoma was greater than 100 µM in each case. Moreover, the GI50 in the assay on K-562 leukemia was greater than 29.5 µM. The TGI in the assay with HOP-62 NSCLC, with OVCAR-3 ovarian, in the assay on RPMI-8226 leukemia, with HT29 colon, in the assay with UACC-257 melanoma and with UACC-62 melanoma was greater than 100 µM throughout. For the same compound, the TGI in the assay on K-562 leukemia was greater than 100 µM.

Turning to `CCOc1c(N=Nc2ccccc2Cl)c(-c2ccccc2)nn1C(=S)S`, the TGI with SR leukemia was 60 µM; in the assay with HOP-62 NSCLC, greater than 100 µM; in the assay with OVCAR-3 ovarian, 90.1 µM; in the assay on HT29 colon, greater than 100 µM; in the assay with UACC-257 melanoma, greater than 100 µM; with UACC-62 melanoma it was greater than 100 µM. This compound also gave a TGI in the assay on K-562 leukemia greater than 100 µM.

Take `COc1ncnc(S(=O)(=O)c2ccc(N=C3C(=O)N(CN4CCN(c5cc6c(cc5F)c(=O)c(C(=O)O)cn6C5CC5)CC4)c4ccc(Cl)cc43)cc2)c1OC`: the GI50 is 31.6 µM with HOP-62 NSCLC; greater than 50 µM in the assay on OVCAR-3 ovarian; 13.5 µM with RPMI-8226 leukemia; greater than 50 µM in the assay on HT29 colon; 46.4 µM with UACC-257 melanoma; 8.75 µM with UACC-62 melanoma. Besides, the GI50 in the assay with K-562 leukemia was 24.6 µM. The TGI with HOP-62 NSCLC, in the assay on OVCAR-3 ovarian, in the assay with RPMI-8226 leukemia, in the assay on HT29 colon, in the assay with UACC-257 melanoma and with UACC-62 melanoma was greater than 50 µM throughout. In the assay on K-562 leukemia, the TGI was greater than 50 µM.

Turning to `COc1cc2c(cc1OCCCCCCN1CCN(CC(=O)Nc3ccc(Cl)cc3C(=O)c3ccccc3Cl)CC1)N=CC1CCCN1C2=O` (stereo not given), the GI50 is 0.0447 µM in the assay on SR leukemia; 0.146 µM in the assay with HOP-62 NSCLC; 0.189 µM in the assay on OVCAR-3 ovarian; 0.229 µM in the assay with HT29 colon; 0.2 µM in the assay on UACC-257 melanoma; 0.408 µM in the assay on UACC-62 melanoma. In addition, in the assay on K-562 leukemia, the GI50 was 0.193 µM. Moreover, the TGI was found to be 0.194 µM in the assay on SR leukemia; 0.294 µM with HOP-62 NSCLC; 0.396 µM in the assay with OVCAR-3 ovarian; 0.576 µM with HT29 colon; 0.775 µM in the assay with UACC-257 melanoma; 0.975 µM in the assay on UACC-62 melanoma.

As for `COC(=O)COc1ccc(/C=C2/N=C(c3ccccc3)N(c3c(C)n(C)n(-c4ccccc4)c3=O)C2=O)cc1`, the GI50 is 23.1 µM in the assay on SR leukemia; 31.7 µM in the assay on HOP-62 NSCLC; 16.6 µM in the assay with OVCAR-3 ovarian; 21.7 µM in the assay on RPMI-8226 leukemia; 18.3 µM in the assay on HT29 colon; 17.6 µM with UACC-62 melanoma. The GI50 in the assay with K-562 leukemia is 30.4 µM. In addition, the TGI in the assay on SR leukemia was 69.3 µM; in the assay on HOP-62 NSCLC it was 97.7 µM; in the assay on OVCAR-3 ovarian, 30.7 µM; in the assay on RPMI-8226 leukemia it was 44.8 µM; with HT29 colon, 35.7 µM; with UACC-62 melanoma, 32.1 µM. In the assay with K-562 leukemia, this compound yielded a TGI greater than 100 µM.

`Cc1nn2c(/C=C3/C(=O)Nc4cc(Cl)ccc43)c(-c3ccccc3)nc2s1`: the GI50 was 3.09 µM with SR leukemia; 4.4 µM with HOP-62 NSCLC; 1.89 µM in the assay on OVCAR-3 ovarian; 11.1 µM in the assay with HT29 colon; 2.65 µM in the assay on UACC-257 melanoma; 4.27 µM in the assay on K-562 leukemia. Besides, the TGI in the assay on SR leukemia was greater than 100 µM; with HOP-62 NSCLC, 17.9 µM; with OVCAR-3 ovarian, 3.68 µM; in the assay with HT29 colon, greater than 100 µM; with UACC-257 melanoma, 8.32 µM; with K-562 leukemia it was greater than 100 µM.
